How the values were obtained:
[1] = Transdermal experiment, modified Franz diffusion pool with HPLC; type: in vitro ADME, mice
Procedure: To explore the optimized dosage form and preparation technology of BK B2 receptor agonist, we selected YLB-01, which has the long-term stability for preservation, as a sample from three agonists (YLB-01, YLB-02, YLB-03) and prepared three kinds of dosage form, analyzed by transdermal experiments and high-performance liquid phase (HPLC) content analysis. Three dosage forms (liniments, gels and ointments) of […] were prepared in different concentrations (0.03%, 0.3% and 3%). Then, different proportional of transdermal promoters was added to perform transdermal experiments. The transdermal effects of three kinds of YLB-01 formulation were evaluated by the modified Franz diffusion pool. Cumulative transmittance of liniments, gels and ointments in 0.3% concentration of YLB-01 for 9 hours was measured respectively. Results: (1) The best transdermal promoter ratio of liniments, gels and ointments were 2% propylene glycol+2% azone, 4% propylene glycol, and 5% propylene glycol+2% azone. (2) 9 hours of cumulative transmittance of 0.03%, 0.3%, 3% liniments were 4.23%, 10.96% and 12.17%, respectively; 9 hours of cumulative transmittance of 0.03%, 0.3%, 3% gels were 2.29%, 4.43% and 13.57%, respectively; 9 hours of cumulative transmittance of 0.03%, 0.3%, 3% ointments were 2.08%, 1.12% and 0.73%, respectively. Conclusion: The different contents of […] liniments, gels and ointments are all have some transdermal abilities, and the abilities are: liniments>gels>ointments.
To determine the optimal dosage form of YLB-01 and best transdermal promoter, we plan to use transdermal test combined with HPLC content analysis as screening basis, research on dosage forms and transdermal promoter to achieve a stable and reliable preparation. The samples were analyzed by HPLC on an Agilent TC-C18 column (150 mm×4.6 mm, 5 microns). The mobile phases were methanol and 0.02 mol/L potassium dihydrogen phosphate buffer (66:34, pH was adjusted to 4 with phosphoric acid). Flow rate: 1 ml/min; Column temperature: 30° C. Excitation wavelength and fluorescent wavelength of fluorescence detection were 267 nm and 380 nm, respectively. Under this condition, YLB-01 retention time was 3.898 min, target compounds peak shape is good which could be effectively separated, and no impurity peak, baseline is smooth (shown as FIG. 6).
The abdominal hair of mice was removed. The mice were sacrificed by spinal dislocation. The subcutaneous fat was removed, and the depilous skin of abdomen was reserved in 4° C. physiological saline. Skin was fixed between the supply room and reception room facing the supply room. The effective permeability area was 4 cm^2. Receiving liquid was physiological saline, and receiving chamber volume V were 25 ml. 1.0 g of the tested sample was coated evenly on the effective skin surface with the electromagnetic stirrer run at a speed of 300 r/min. To take out the receiving liquid in 1, 2, 3, 4, 5, 6, 7, 8, 9 h, 0.5 ml/h (Complementing the same quantity each time), the samples were centrifuged and the supernatant was took for HPLC analysis.
After the detection, the cumulative transmittance P (%) was calculated:
V: the volume of receiving liquid in receiving room; Ci: drug concentration in receiving liquid between the time to last time of the i time; Cn: drug concentration in the receiving liquid when the n time taking the sample; M: drug content in the sample.

human lower leg hair = experiment: Hair growth after topical 0.3% suspension on human lower leg; type: in vivo; details: twice a day
From the text: (§1) The B2 receptor agonist (YLB-01) suspension with 0.3% concentration was obtained for clinical use as described above. The suspension was applied to human lower leg twice a day, for 3 months; hair growth was observed. The treated areas were observed daily to monitor hair growth and side effects, e.g. swelling, pruritus, pain, etc. And the treated parts were photographed weekly.
as §1, with “above and” for “above. The suspension”

BK B2 receptor = target: T1, BK B2 receptor (Homo sapiens, UniProt P30411); experiment: Relative amount of PG secretion in cell supernatant by enzyme immunoassay (EIA); type: cell-based; details: 1 h, 1 μM BK set as 100%
T1 construct: The cell strains used in the study were human primary vein endothelial cells (HPVEC) and human aortic smooth muscle cells (HASMC); endogenous in cells; host or cells: human primary vein endothelial cells (HPVEC) and human aortic smooth muscle cells (HASMC)
T1 sequence (P30411 1-391): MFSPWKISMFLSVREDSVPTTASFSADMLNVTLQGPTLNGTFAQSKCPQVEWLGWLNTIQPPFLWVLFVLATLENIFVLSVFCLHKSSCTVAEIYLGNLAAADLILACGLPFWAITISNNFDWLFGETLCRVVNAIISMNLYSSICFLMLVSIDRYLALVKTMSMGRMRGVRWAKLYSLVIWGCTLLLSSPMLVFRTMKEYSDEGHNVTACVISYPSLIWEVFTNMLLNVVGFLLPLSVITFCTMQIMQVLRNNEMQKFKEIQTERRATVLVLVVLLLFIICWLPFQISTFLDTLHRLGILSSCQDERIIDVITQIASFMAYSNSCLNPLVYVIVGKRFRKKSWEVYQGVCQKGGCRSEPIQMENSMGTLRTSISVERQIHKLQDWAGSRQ
Procedure: YLB-01, YLB-02 and YLB-03 were selected for the study as described below in Table 1, and BK was used as control. Implantation Two cell lines were transferred into T-75 cell culture flask, and then the instructions of PG kit were strictly followed when cells have reached the appropriate density. Day 1 Cells were seeded in 24 well dishes with minimum medium and allowed to adhere overnight. Day 2 Cells were starved in the serum-free conditioned medium. […] The supernatant was collected after incubation for later use. Day 4 24 well dishes were washed and then dyed for 45-90 min, and then the OD value was measured for analysis. […] In order to detect endogenous prostaglandin, enzyme immunoassay (EIA) was used to determine the amount of prostaglandin and subtypes thereof in the cell supernatant described above.

SMILES: CNC(=O)c1ccc(CCC(=O)NCC(=O)N(C)c2ccc(Cl)c(COc3cccc4c3nc(OC)n4Cc3ccccn3)c2Cl)cc1 [YLB-01, 4-(3-2-((2,4-dichloro-3-((2-methoxy-1-(pyridine-2ylmethyl)-1H-benzo[d]imidazol-4-yloxy)methyl)phenyl)(methyl)amino-2-oxoethylamino)-3-oxopropyl)-N-methylbenzamid]
- Cumulative Penetration Rate of 9 Hours ([1]; gels, 0.03% YLB-01, 4% propylene glycol, 0% azone): 2.29%
- Cumulative Penetration Rate of 9 Hours ([1]; gels, 0.3% YLB-01, 4% propylene glycol, 0% azone): 4.43%
- Cumulative Penetration Rate of 9 Hours ([1]; gels, 3% YLB-01, 4% propylene glycol, 0% azone): 13.57%
- Cumulative Penetration Rate of 9 Hours ([1]; liniments, 0.03% YLB-01, 2% propylene glycol + 2% azone): 4.23%
- Cumulative Penetration Rate of 9 Hours ([1]; liniments, 0.3% YLB-01, 2% propylene glycol + 2% azone): 10.96%
- Cumulative Penetration Rate of 9 Hours ([1]; liniments, 3% YLB-01, 2% propylene glycol + 2% azone): 12.17%
- Cumulative Penetration Rate of 9 Hours ([1]; ointments, 0.03% YLB-01, 5% propylene glycol + 2% azone): 2.08%
- Cumulative Penetration Rate of 9 Hours ([1]; ointments, 0.3% YLB-01, 5% propylene glycol + 2% azone): 1.12%
- Cumulative Penetration Rate of 9 Hours ([1]; ointments, 3% YLB-01, 5% propylene glycol + 2% azone): 0.73%
- hair growth (human lower leg hair; 0 week): 0 mm
- hair growth (human lower leg hair; 2 weeks): 4.89 ± 0.38 mm
- hair growth (human lower leg hair; 3 weeks): 6.82 ± 0.4 mm
- hair growth (human lower leg hair; 4 weeks): 9.61 ± 0.55 mm
- hair growth compared with control group (photos, FIG. 2) (human lower leg hair; 3 months): hairs grew more quickly than those in control group
- new hair growth in parts used to be bald (photos, FIG. 1) (human lower leg hair; 3 months): tiny new hairs grew out
- activation at 0.0001 µM (BK B2 receptor; 0.1 nM): 0%
- activation at 0.001 µM (BK B2 receptor; 1 nM): 7.69 ± 2.19%
- activation at 0.01 µM (BK B2 receptor; 10 nM): ~50%
- activation at 0.03 µM (BK B2 receptor; 30 nM): 53.7 ± 4.56%
- activation at 0.1 µM (BK B2 receptor; 100 nM): 73.4 ± 2.7%
- activation at 0.3 µM (BK B2 receptor; 300 nM): 83.8 ± 6.45%
- activation at 1 µM (BK B2 receptor; 1 μM): 87 ± 3.76%
- activation at 3 µM (BK B2 receptor; 3 μM): 87.8 ± 4.2%
- activation at 10 µM (BK B2 receptor; 10 μM): 86.5 ± 7.44%
